Experiments:
[1] = target: T1, hHMGR (Homo sapiens, UniProt P04035); experiment: Enzymatic assay of recombinant hHMGR; assay type: biochemical; conditions: result in words, Figure 4
T1 sequence (P04035 450-883 limits assumed): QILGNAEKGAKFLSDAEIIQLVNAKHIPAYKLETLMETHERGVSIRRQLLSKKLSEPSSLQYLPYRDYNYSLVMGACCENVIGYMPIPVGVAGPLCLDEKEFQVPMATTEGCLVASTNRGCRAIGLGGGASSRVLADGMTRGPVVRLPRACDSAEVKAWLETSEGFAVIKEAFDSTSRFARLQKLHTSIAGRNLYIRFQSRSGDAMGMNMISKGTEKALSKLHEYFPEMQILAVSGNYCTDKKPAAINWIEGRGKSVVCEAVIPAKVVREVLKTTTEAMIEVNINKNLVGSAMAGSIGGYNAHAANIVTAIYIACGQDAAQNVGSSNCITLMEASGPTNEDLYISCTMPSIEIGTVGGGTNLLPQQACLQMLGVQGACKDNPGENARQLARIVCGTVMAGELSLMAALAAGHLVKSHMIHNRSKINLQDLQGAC

[2] = tested on: HepG2 cells; experiment: MTT assay, cellular toxicity on HepG2 cells; assay type: cell-based; conditions: 24 h treatment, result in words

inhibition of hHMGR activities [1]	Structure (SMILES)	cytotoxic effect [2]
effectively inhibit	O=C(/C=C/c1ccc(O)c2oc(-c3ccc(O)c(O)c3)cc12)O[C@H](Cc1ccc(O)c(O)c1)C(=O)O [Compound 1, (2r)-3-(3,4-dihydroxyphenyl)-2-[(E)-3-[2-(3,4-dihydroxyphenyl)-7-hydroxy-1-benzofuran-4-yl]prop-2-enoyl] oxypropanoic acid]	
effectively inhibit	CCCCCCCCCCCCCCCCCCCCCCO [Compound 8, Docosan-1-ol]	milder cytotoxic effect
no inhibitory capability	Nc1nc(O)c2nc(CNc3ccc(C(=O)N[C@@H](CCC(=O)O)C(=O)O)cc3)cnc2n1 [Compound 10, (2S)-2-[(4-{[(2-amino-4-hydroxypteridin-6-yl)methyl]amino}phenyl) formamido] pentanedioic acid]	
effectively inhibit	COc1cc(/C=C/C(=O)CC(=O)/C=C/c2ccc(O)c(OC)c2)ccc1O [Compound 3, (1E,6E)-1,7-bis(4-hydroxy-3-methoxyphenyl)-1,6-heptadiene-3,5-dione]	
